We go through four compounds from patent publication US9370511B2, “Morphinan-derivatives for treating diabetes and related disorders” (priority 2011, dated 2016).

Entries after “also recorded” stand apart in the source; their conditions may differ.

In series [1] the test system is children with severe bacterial meningitis. The note with it: 36 mg kg^−1 day^−1; two children, also on glucocorticoids; cited from earlier work.
The subject of series [2] is mouse pancreatic islets. The experiment in a line: Insulin secretion from mouse pancreatic islets at low and high glucose. The class given is cell-based. To be noted: comparison of DXO, DXM and LEV. As to the method: (§1) Mouse pancreatic islets were treated with a low, non-stimulatory glucose concentration (2.5 mM) or a high, stimulatory glucose concentration (25 mM) in the absence or presence of 1 μM or 10 μM dextrorphan. Insulin secretion was determined as percent of […] glucose control, and values are expressed as means+/−SD (N=3). The asterisks (*) indicate p values smaller than 0.05 in Student's t-tests.
Low Glucose (2.5 mM); High Glucose (25 mM); p<0.05 (Student's t-Test), N=3.
Example 1 was repeated in order to compare dextrorphan, dextromethorphan, and levorphanol with one another.

Series [3] has as its system db/db mouse (an animal model for human type 2 diabetes mellitus). Kind of series: Long-term treatment of db/db mice with dextromethorphan in drinking water. The class given is in vivo. The text has this:
Therefore, long-term treatment with dextromethorphan is beneficial for beta cell function and blood glucose control in a mouse model for human type 2 diabetes mellitus.

For series [4], the system named is male subjects with type 2 diabetes mellitus. The experiment in a line: Clinical trial, oral single dose followed by oral glucose tolerance test (OGTT). Format: in vivo, human. On the procedure:
The study was designed as a randomized, double-blind, placebo-controlled crossover study to investigate the glucose lowering effect of oral single doses of DXM 270 mg (FIG. 10) and DXM 60 mg (FIG. 11) vs. placebo in subjects with T2DM following an oral glucose tolerance test (OGTT). DXM 270 mg, DXM 60 mg or placebo was administered orally at 0 minutes. OGTT was started at 60 minutes (75 g glucose orally). Blood glucose levels were measured at the indicated times. n=20 male with T2DM on a stable regimen of metformin monotherapy, between 45 and 70 years of age, with a BMI between 25 and 35 kg/m2, HbA1c between 7 and 8%. Student's t-test. *p=0.01, **p<0.001All values are means±SD.

Series [5] deals with painful diabetic neuropathy. The note with it: in vivo; cited from earlier work.
Series [6] has as its system human pancreatic islets. Kind of series: Insulin secretion from human pancreatic islets at low and high glucose. Format: cell-based. To be noted: 1 μM; low glucose 2 mM vs high glucose 20 mM. As to the method:
as §1
Example 1 was repeated but the mouse pancreatic islets were replaced by human pancreatic islets.
Low Glucose (2 mM); High Glucose (20 mM); the asterisks (*) indicate p values smaller than 0.05 in Student's t-tests.

Series [7] deals with diabetics. The note with it: long-term experience; cited from earlier work.
Where [8] appears, read: 3 mg/ml in drinking water, 8 weeks, compared to low dose 1 mg/ml.

Regarding `COc1ccc2c(c1)[C@]13CCCC[C@@H]1[C@H](C2)N(C)CC3` [dextromethorphan, (+)-3-methoxy-17-methyl-(9α,13α,14α)-morphinan], the serious adverse event entry in series [1] is given as “developed an insulin dependent diabetes mellitus”. Besides, the “glucose-dependent insulin secretion, compared with levorphanol” value in series [2] was “significantly more effective in inducing glucose-dependent insulin secretion than levorphanol”; in series [2] (listed as DXM) it was “increase glucose-dependent insulin secretion from pancreatic islets to a significantly larger extent compared to LEV”. The “effectiveness of the low dose” value in series [3] (1 mg/ml in drinking water) is reported as “ineffective”. Also, in series [3] (setting [8]), the beta cell area result was “significantly larger”. For the same compound, the “insulin content of islets” value in series [3] (setting [8]) is listed as “significantly increased; also recorded: contained significantly more insulin”. The “starving blood glucose levels” value is recorded as “significantly improved starving blood glucose levels; also recorded: lower blood glucose levels or better blood glucose control” in series [3] (setting [8]) and “does not affect starving blood glucose levels” in series [4] (270 mg oral single dose). The results for the “blood glucose levels during oral glucose tolerance test” value in series [4] (60 mg oral single dose vs placebo) and in series [4] (270 mg oral single dose vs placebo) were “too low a concentration” and “significantly lowers blood glucose levels after glucose uptake”, respectively. The hypoglycemic events entry in series [4] (20 patients, oral single doses) is reported as “no hypoglycemic events were observed”. Moreover, the “efficacy in painful diabetic neuropathy” value in series [5] is “effective in treating painful diabetic neuropathy”.

As for `COc1ccc(Cl)cc1C(=O)NCCc1ccc(S(=O)(=O)NC(=O)NC2CCCCC2)cc1` [glibenclamide], the “insulin secretion, basal and glucose-stimulated” value in series [6] was “increases both basal (2 mM glucose) and glucose-stimulated (20 mM glucose) insulin secretion”.

For the compound `CN1CC[C@]23CCCC[C@H]2[C@H]1Cc1ccc(O)cc13` [levorphanol], the “glucose-dependent insulin secretion, compared with levorphanol” value in series [2] was “not the levorotatory (−) stereoisomer that mainly targets opioid receptors, increases glucose-dependent insulin secretion to a large extent”.

`CN(C)C(=N)N=C(N)N` [metformin]: the “reduction of diabetes complications and mortality” value in series [7] was “about 30%”.
